The source of these data is US8124361B2, “Methods of screening for sweet taste modulators” (Givaudan SA, priority 2006, dated 2012).

The structures appear in SMILES notation.

In one experiment the test system is HEK293T/Gα16gust44 cells. Nature of the experiment: Fluo-4 calcium assay, negative control cells expressing Gα16gust44 only (mock transfected). It is filed as cell-based, human. The settings on record: for Neg. control (mock transfection) AVG: calcium chloride 2 mM, sucralose 0.5 mM, aspartame 0.85 mM, perillartine 50 μM, cinnamonitrile 100 μM, cyclamate 1 mM, NDHC 0.33 mM, six replicates.

A further experiment concerns the target T1, hCaSR (Homo sapiens, UniProt P41180).
T1 construct: full length cDNAs encoding the human CaSR (commercially available from Origene Inc., USA); host or cells: HEK293T cells stably expressing Galpha16gust44
T1 sequence (P41180 20-1078): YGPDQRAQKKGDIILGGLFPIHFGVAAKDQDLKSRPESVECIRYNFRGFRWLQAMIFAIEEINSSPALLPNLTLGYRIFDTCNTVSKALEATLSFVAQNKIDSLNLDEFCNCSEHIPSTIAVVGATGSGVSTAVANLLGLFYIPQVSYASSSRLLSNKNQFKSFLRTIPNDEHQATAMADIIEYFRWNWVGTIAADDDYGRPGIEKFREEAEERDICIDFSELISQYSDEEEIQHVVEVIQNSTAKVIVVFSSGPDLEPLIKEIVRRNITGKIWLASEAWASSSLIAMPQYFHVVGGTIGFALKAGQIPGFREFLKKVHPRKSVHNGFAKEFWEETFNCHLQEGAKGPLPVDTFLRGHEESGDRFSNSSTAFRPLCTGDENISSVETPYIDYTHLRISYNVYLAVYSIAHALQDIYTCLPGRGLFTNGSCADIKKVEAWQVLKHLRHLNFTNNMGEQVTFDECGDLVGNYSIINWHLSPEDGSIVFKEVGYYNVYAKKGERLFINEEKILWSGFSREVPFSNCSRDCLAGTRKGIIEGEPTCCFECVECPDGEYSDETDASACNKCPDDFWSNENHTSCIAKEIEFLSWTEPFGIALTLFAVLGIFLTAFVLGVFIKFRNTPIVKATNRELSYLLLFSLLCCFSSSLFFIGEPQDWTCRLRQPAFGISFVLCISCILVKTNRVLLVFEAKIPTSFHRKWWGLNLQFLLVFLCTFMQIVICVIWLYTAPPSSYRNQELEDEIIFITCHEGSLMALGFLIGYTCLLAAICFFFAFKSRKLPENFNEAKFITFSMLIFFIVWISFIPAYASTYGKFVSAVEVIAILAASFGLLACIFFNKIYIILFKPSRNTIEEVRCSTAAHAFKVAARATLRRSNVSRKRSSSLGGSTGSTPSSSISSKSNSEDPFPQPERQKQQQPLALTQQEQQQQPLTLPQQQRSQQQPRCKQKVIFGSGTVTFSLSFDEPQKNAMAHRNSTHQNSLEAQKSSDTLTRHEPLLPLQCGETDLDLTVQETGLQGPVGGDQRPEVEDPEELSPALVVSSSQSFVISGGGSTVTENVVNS
As to the kind of experiment: Fluo-4 calcium assay in cells transfected with hCaSR. Format: cell-based. The settings on record: transient transfection; calcium chloride 2 mM, sucralose 0.5 mM, aspartame 0.85 mM, perillartine 50 μM, cinnamonitrile 100 μM, cyclamate 1 mM, NDHC 0.33 mM; six replicates.

For experiment [1], the target named is T2, transmembrane domains of TAS1R (Homo sapiens, UniProt Q7RTX0+Q8TE23, C757R).
T2 sequence (Q8TE23 20-839): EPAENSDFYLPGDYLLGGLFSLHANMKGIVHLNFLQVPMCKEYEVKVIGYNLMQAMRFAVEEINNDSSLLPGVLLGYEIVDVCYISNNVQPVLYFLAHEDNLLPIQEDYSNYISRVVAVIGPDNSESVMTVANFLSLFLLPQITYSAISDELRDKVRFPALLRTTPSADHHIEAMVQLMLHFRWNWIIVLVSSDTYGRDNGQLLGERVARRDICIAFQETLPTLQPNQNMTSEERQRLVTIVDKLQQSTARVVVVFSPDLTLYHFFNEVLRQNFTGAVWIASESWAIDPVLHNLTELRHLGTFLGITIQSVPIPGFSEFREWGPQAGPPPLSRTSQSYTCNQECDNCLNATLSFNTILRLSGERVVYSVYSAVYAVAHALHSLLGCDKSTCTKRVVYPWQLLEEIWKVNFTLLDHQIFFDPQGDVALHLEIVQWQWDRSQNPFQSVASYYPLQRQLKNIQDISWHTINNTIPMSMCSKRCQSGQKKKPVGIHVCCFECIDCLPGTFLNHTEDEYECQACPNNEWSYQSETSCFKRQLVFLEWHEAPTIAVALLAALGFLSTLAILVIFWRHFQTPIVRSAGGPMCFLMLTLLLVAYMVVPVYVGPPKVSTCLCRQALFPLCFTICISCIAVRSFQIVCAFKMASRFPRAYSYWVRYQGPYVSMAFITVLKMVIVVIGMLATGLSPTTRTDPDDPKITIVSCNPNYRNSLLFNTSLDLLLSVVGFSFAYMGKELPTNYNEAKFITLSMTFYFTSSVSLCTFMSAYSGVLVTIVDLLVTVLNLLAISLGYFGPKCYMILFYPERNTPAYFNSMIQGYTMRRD
T2 sequence (Q7RTX0 21-852 C757R): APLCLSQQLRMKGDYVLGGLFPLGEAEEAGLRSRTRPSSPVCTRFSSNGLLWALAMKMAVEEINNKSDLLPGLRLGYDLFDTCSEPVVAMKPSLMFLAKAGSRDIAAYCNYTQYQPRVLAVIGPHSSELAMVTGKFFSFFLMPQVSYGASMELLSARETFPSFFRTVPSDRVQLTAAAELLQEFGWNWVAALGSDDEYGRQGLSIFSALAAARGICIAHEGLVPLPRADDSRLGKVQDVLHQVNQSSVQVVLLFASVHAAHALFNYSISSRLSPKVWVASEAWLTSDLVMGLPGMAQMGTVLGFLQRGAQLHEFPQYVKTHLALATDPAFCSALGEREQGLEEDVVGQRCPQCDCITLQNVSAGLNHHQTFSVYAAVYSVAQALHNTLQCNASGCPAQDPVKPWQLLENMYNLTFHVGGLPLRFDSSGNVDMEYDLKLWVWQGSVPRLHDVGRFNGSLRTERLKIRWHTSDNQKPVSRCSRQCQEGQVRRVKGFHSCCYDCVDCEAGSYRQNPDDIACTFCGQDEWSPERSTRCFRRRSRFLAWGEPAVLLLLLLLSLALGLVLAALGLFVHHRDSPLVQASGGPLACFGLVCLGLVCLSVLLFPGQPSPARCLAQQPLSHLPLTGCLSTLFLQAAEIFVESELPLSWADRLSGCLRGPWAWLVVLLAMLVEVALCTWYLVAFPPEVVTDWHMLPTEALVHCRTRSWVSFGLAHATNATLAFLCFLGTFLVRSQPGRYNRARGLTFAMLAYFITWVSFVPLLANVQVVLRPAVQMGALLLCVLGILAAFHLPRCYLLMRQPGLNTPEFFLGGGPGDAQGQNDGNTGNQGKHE
As to the kind of experiment: Identification of candidate sweetness enhancers that bind to the transmembrane domains. Format: binding. The conditions noted are these: identified by the applicants as candidate sweetness enhancers.

A further experiment has as its target T3, T1R2-TMD (Homo sapiens, UniProt Q8TE23).
T3 sequence (Q8TE23 564-839): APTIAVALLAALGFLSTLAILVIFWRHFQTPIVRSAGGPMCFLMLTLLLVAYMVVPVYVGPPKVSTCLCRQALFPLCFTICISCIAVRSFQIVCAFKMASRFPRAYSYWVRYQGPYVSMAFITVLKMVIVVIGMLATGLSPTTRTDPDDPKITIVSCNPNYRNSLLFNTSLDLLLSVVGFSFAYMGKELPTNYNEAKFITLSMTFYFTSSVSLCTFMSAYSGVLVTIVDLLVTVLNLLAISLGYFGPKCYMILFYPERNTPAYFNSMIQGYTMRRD

Experiment [2] deals with sweet sensitive panelists. Nature of the experiment: Forced choice test of sweetness versus sucrose, sensory panel. Format: in vivo, human. The conditions noted are these: 1% sucrose, comparison with 60 ppm swingle extract; highest imaginable sweetness rates as 10. How it is done: A forced choice sensory evaluation of […] extract as a sweetener was performed as described in example 13 (see also for forced choice method, O'Mahony, 1992, J. Sens. Stud., 7:1-47), subject to the following modifications: […]

For experiment [3], the system named is sweet sensitive panelists. As to the kind of experiment: Ranking test of sweetness isointensity (R-index), sensory panel. Format: in vivo, human. As for the experimental part: (§1) The sensory evaluation was conducted using a ranking method. Samples at ambient temperature were randomly presented in 15 ml blind aliquots (unidentifiable by panelists). Panels consisted of 10 sweet sensitive subjects and samples were presented in 3 replications over 1 session. After tasting each sample, the mouth was rinsed thoroughly with water at ambient temperature prior to tasting the next sample. […] They were asked to rank the samples from low to high with respect to perceived sweet taste.
as §1, with “taste. […] From ranking-style sensory tests, a matrix of responses (see table X below) is constructed such that each cell contains the number of times a given sample was ranked at a particular location.” for “taste.”
Essentially, the R-index is a measure of difference between two samples. The R-index has a chance level of detection of 50%. […] The critical value is the statistically relevant value that the derived R-index must deviate from (i.e greater or less than) in order to be considered significant.

Setting [4] is: 0.5% sucrose in 1700 ppm cyclamate vs 1700 ppm cyclamate.
The mark [5] stands for this setting: 0.5% sucrose in 1700 ppm cyclamate vs 1900 ppm cyclamate.
The mark [6] stands for this setting: 0.5% sucrose in 1700 ppm cyclamate vs 2100 ppm cyclamate.
Setting [7] is: 0.5% sucrose in 1700 ppm cyclamate vs 2300 ppm cyclamate.
[8] abbreviates: 0.5% sucrose in 1700 ppm cyclamate vs 2500 ppm cyclamate.
The mark [9] stands for this setting: 0.5% sucrose in aqueous 600 ppm p-ethoxybenzaldehyde vs 600 ppm p-ethoxybenzaldehyde.
[10] abbreviates: 0.5% sucrose in aqueous 600 ppm p-ethoxybenzaldehyde vs 700 ppm p-ethoxybenzaldehyde.

Take `[Ca+2].[Cl-].[Cl-]` [Calcium, calcium chloride]: in the experiment with HEK293T/Gα16gust44 cells, the “Neg. control (mock transfection) AVG” value is on record as 1570 RFU. Further, the “hCaSR AVG” value on hCaSR is on record as 7610 RFU.
In the same order, the values of `OC[C@H]1O[C@H](O[C@]2(CCl)O[C@H](CCl)[C@@H](O)[C@@H]2O)[C@H](O)[C@@H](O)[C@H]1Cl` [Sucralose, 6-dichloro-1,6-dideoxy-β-D-fructo-furanosyl 4-chloro-4-deoxy-α-D-galactopyranoside] are −186 RFU and 22 RFU.
For `N#CC=Cc1ccccc1` [cinnamonitrile], the “Neg. control (mock transfection) AVG” value in the experiment with HEK293T/Gα16gust44 cells is −998 RFU. In addition, in experiment [1], the “binding to the transmembrane domains of TAS1R” value was “bind to the transmembrane domains of TAS1R”. For the same compound, the “hCaSR AVG” value on hCaSR is recorded as 197 RFU.
As for `C=C(C)[C@@H]1CC=C(/C=N/O)CC1` [perillartine], the “AVERAGE fluorescence increase, T1R2-TMD/Gα16gust44” value at T1R2-TMD (50 μM perillartine) is 973.06 RFU. Moreover, the “increase in fluorescence compared to the signal of the negative control” value at T1R2-TMD (perillartine, many cell clones, vs cells expressing Gα16gust44 but not T1R2-TMD) was “greater than 10 times”. The “AVERAGE fluorescence increase, Gα16gust44 ONLY (neg. control)” value with HEK293T/Gα16gust44 cells (50 μM perillartine) is recorded as 73.78 RFU. In addition, the “Neg. control (mock transfection) AVG” value in the experiment on HEK293T/Gα16gust44 cells was −379 RFU. For the same compound, in experiment [1], the “binding to the transmembrane domains of TAS1R” value is reported as “bind to the transmembrane domains of TAS1R”. For the same compound, the “hCaSR AVG” value on hCaSR is recorded as 73 RFU.
Regarding `OC[C@H]1O[C@@](CO)(O[C@H]2O[C@H](CO)[C@@H](O)[C@H](O)[C@H]2O)[C@@H](O)[C@@H]1O` [sucrose, α-D-glucopyranosyl-(1→2)-β-D-fructofaranose], in experiment [2], the sweetness intensity rating worked out at 0.72. Besides, in experiment [3] (0.5% sucrose in 1700 ppm cyclamate), the “cyclamate equivalent in sweetness added” value is listed as 200 ppm cyclamate. The R-index is listed as 85% in experiment [3] (setting [4]); 60% in experiment [3] (setting [5]); 21% in experiment [3] (setting [6]); 7% in experiment [3] (setting [7]); 4% in experiment [3] (setting [8]); 68% in experiment [3] (setting [9]). The R-index in experiment [3] (setting [10]) turned out to be 59%. In addition, the sucrose sample sweetness entry in experiment [3] (setting [4]) is on record as “sweeter”; in experiment [3] (setting [5]), “isosweet”; in experiment [3] (setting [6]), “less sweet”; in experiment [3] (setting [7]) it was “less sweet”; in experiment [3] (setting [8]), “less sweet”. In experiment [3] (0.5% sucrose in aqueous 600 ppm p-ethoxybenzaldehyde), this compound came in with a p-ethoxybenzaldehyde isointensity of 700 ppm p-ethoxybenzaldehyde. Further, the mixture sample sweetness entry in experiment [3] (setting [9]) is reported as “sweeter”; in experiment [3] (setting [10]), “isosweet”. The cyclamate isointensity in experiment [3] (1700 ppm cyclamate+0.5% sucrose) worked out at 1900 ppm cyclamate.
